Several values for one entry are separate records, joined by “and”; a condition that tells them apart may be missing. Equal values may be shown once. Marks after values point to notes of the source that are not given here.
Columns and labels:
Type in all cases: in vivo, mouse
[1] = HCT116 tumor xenograft model, host response (body weight, survival, neutrophils); settings: q4d × 3; for Neutrophils/ul 72 h post-dose +/− S.D.: 72 h after last dose
Procedure: The cell line HCT-116 has been widely used in the evaluation of mitotic inhibitors such as microtubule disruptors, mitotic kinase inhibitors and KSP inhibitors. A multi-dose efficacy study on a […] (q4d×3) dosing schedule was performed. Experiments were performed using outbred athymic nu/nu mice approximately 6-8 weeks old (Charles River Laboratories, Hollister, Calif.). […] Mice were housed 4-5 animals per cage in clear polycarbonate micro-isolator cages with a 12-hour light, 12-hour dark cycle at temperatures between 70-80 degrees Fahrenheit and 30-70% relative humidity. Food (Purina rodent chow pellets) and water were provided ad libitum. Mice were handled in accordance with Novartis ACUC regulations and guidelines and the ILAR Guide for the Care and Use of Laboratory Animals. Experiments were performed in an AAALAC accredited facility under an ACUC approved protocol.
Compound IIa (free base) and SB-715992 (ispinesib, a KSP inhibitor by Cytokinetics that is in clinical trials; as its free base) were formulated in 20% Captisol® for all the above doses for a dose volume of 8 mL/kg. Doses were adjusted to each animal's body weight.
Female nu/nu mice (Charles River, Hollister, Calif.) were injected subcutaneously in the right flank with 5 million HCT-116 tumor cells suspended in Hank's Balanced Salt Solution (HBSS) in a total volume of 0.1 mL/mouse. For the efficacy studies, mice were randomized 10 days post-implant. […] Tumor volume was calculated as (L×W2)/2. […] Percent treatment/control (T/C) values were calculated using the following formula: % T/C=100×ΔT/ΔC
Since a dose as low as 1.25 mg/kg on a q4d×3 schedule induced regression of HCT116 xenografts, the efficacy study was repeated with a range of doses from 2 to 0.125 mg/kg to observe a dose response and determine how low a dose can be given to induce tumor regression. […] Only the 7.5 mg/kg dose of SB-715992 induced tumors to regress. Additionally, 72 hrs after the last dose, blood was collected to compare the circulating neutrophil levels among groups. Neutrophils were reduced in a dose responsive manner, similar to the tumor efficacy effect.

[2] = Subcutaneous MV4; 11 tumor xenograft model, host response
Procedure: Subcutaneous tumor efficacy studies were performed using outbred athymic nu/nu mice approximately 6-8 weeks old (Charles River Laboratories, Hollister, Calif.). The efficacy study in the disseminated disease model was performed using immunodeficient NOD-SCID female mice approximately 7-8 weeks old (Jackson Laboratories, Bar Harbor, Me.). […] Routine animal care and assurance of welfare were as described above.
The compound IIa (free base) and SB-715992 (free base) were formulated in 20% Captisol for a dose volume of 8 mL/kg. Doses were adjusted to each animal's body weight.
For the two efficacy evaluations in the subcutaneous tumor model, 10 million cells combined in a 1:1 mixture of HBSS and Matrigel™ were injected subcutaneously in the right flank in a total volume of 0.2 mL/mouse. […] Tumor volume was calculated as (L×W2)/2.

[3] = system: human multiple myeloma KMS-11-luc tumor xenografts; test: Subcutaneous KMS-11-luc tumor xenograft model, tumor response
Procedure: Experiments were performed using immunodeficient SCID-Beige female mice approximately 7-8 weeks old (Charles River Laboratories, Wilmington, Mass.). […] Routine animal care and assurance of welfare were as described above.
Human KMS-11-luc multiple myeloma cells were obtained from the laboratory of Suzanne Trudel at the University of Toronto (Ontario, Canada) and tested to be free of Mycoplasma sp. and murine viruses in the IMPACT1 PCR assay panel (RADIL, University of Missouri, Columbia, Mo.). Prior to our receiving this cell line, it had been stably engineered to express luciferase by retroviral transfection of the pGC-gfp/luc vector. KMS-11-luc cells were grown in Iscove's medium supplemented with 2 mmol/L L-glutamine (Mediatech, Inc., Hemdon, Va.) and 10% fetal bovine serum (JRH Biosciences, catalog #12003-1000M). These cells were grown as suspension cultures, maintained at 37° C. in a humidified atmosphere containing 5% carbon dioxide. Cells were cultured for fewer than 10 passages prior to use. Cells were harvested at approximately 2 million cells/mL, and centrifuged at ˜800×g for 5 minutes at 4° C. and then resuspended in a 1:1 mixture of cold Hank's balanced salt solution (HBSS) and Matrigel™ (Mediatech Inc., catalog #21-021-CV; BD Biosciences, catalog #354234, respectively) at a concentration of 50 million cells/mL for implantation subcutaneously (injection volume of 0.2 mL). Alternatively, for the disseminated disease model, cells were prepared only in cold HBSS at a concentration of 100 million cells/mL for intravenous (i.v.) implantation via the tail vein (injection volume of 0.1 mL).
Compound IIa and SB-715992 (free base) were formulated in 20% Captisol for a dose volume of 8 mL/kg. Doses were adjusted to each animal's body weight.
For the efficacy evaluation in the subcutaneous tumor model, 10 million cells combined in a 1:1 mixture of HBSS and Matrigel™ were injected subcutaneously in the right flank in a total volume of […]. […] Tumor volume was calculated as (L×W2)/2. […] Data analysis was as described above.

[4] = Study 2, 1.8 mg/kg, Q4d × 3, i.v, D10
[5] = Study 2, 3.5 mg/kg, Q4d × 3, i.v, D3
[6] = Study 2, 7.5 mg/kg, Q4d × 3, i.v, D10

Structure (SMILES): Cc1ccc(C(=O)N(CCCN)[C@@H](c2nc3cc(Cl)ccc3c(=O)n2Cc2ccccc2)C(C)C)cc1 [SB-715992, Ispinesib, reference compound]
- Survival (alive/total) ([1]; 1.75 mg/kg, i.v.): 9/9
- Neutrophils/ul 72 h post-dose +/− S.D. ([1]; 1.75 mg/kg, i.v.): 1026 ± 229 µL⁻¹
- Max. Δ body weight (Day) ([1]; 1.75 mg/kg, i.v., D3): -0.6 ± 0.58 g
- Max. Δ body weight (Day) (%) ([1]; 1.75 mg/kg, i.v., D3): −2.3 ± 0.51%
- Survival (alive/total) ([1]; 3.5 mg/kg, i.v.): 9/9
- Neutrophils/ul 72 h post-dose +/− S.D. ([1]; 3.5 mg/kg, i.v.): 731 ± 391 µL⁻¹
- Max. Δ body weight (Day) ([1]; 3.5 mg/kg, i.v., D3): -0.5 ± 0.37 g
- Max. Δ body weight (Day) (%) ([1]; 3.5 mg/kg, i.v., D3): −2.0 ± 0.44%
- Max. Δ body weight (Day) ([1]; 3.5 mg/kg, i.v., D4): -0.7 ± 0.05 g
- Max. Δ body weight (Day) (%) ([1]; 3.5 mg/kg, i.v., D4): −2.7 ± 0.17%
- Survival (alive/total) ([1]; 7.5 mg/kg, i.v.): 9/9
- Neutrophils/ul 72 h post-dose +/− S.D. ([1]; 7.5 mg/kg, i.v.): 476 ± 112 µL⁻¹
- Max. Δ body weight (Day) ([1]; 7.5 mg/kg, i.v., D4): -0.3 ± 0.05 g
- Max. Δ body weight (Day) (%) ([1]; 7.5 mg/kg, i.v., D4): −1.3 ± 0.25%
- Max. Δ body weight (Day) ([1]; 7.5 mg/kg, i.v., D10): -0.7 ± 1.1 g
- Max. Δ body weight (Day) (%) ([1]; 7.5 mg/kg, i.v., D10): −3.0 ± 2.49%
- Survival (alive/total) ([1]; 15 mg/kg, i.v.): 9/9
- Max. Δ body weight (Day) ([1]; 15 mg/kg, i.v., D7): -2.5 ± 0.2 g
- Max. Δ body weight (Day) (%) ([1]; 15 mg/kg, i.v., D7): −10.6 ± 0.75%
- Survival (alive/total) ([2]; 15 mg/kg, q4d × 3, i.v., (body weight loss)): 7/9 (body
- % Max. Δ body weight, (Day) ([2]; 15 mg/kg, q4d × 3, i.v., D3): −5.6 ± 1.1%
- Max Δ body weight (g) (Day) ([2]; 15 mg/kg, q4d × 3, i.v., D3): -1.4 ± 0.3 g
- Survival (alive/total) ([2]; Study 2, 1.8 mg/kg, Q4d × 3, i.v): 9/9
- % Max. Δ body weight, (Day) [2, 4]: 2.0 ± 1.0, %
- Max. Δ body weight (g) (Day) [2, 4]: 0.5 ± 0.4, g
- Survival (alive/total) ([2]; Study 2, 3.5 mg/kg, Q4d × 3, i.v): 9/9
- % Max. Δ body weight, (Day) [2, 5]: 0.7 ± 0.3, %
- Max. Δ body weight (g) (Day) [2, 5]: 0.2 ± 0.3, g
- Survival (alive/total) ([2]; Study 2, 7.5 mg/kg, Q4d × 3, i.v): 9/9
- % Max. Δ body weight, (Day) [2, 6]: −1.4 ± 1.3, %
- Max. Δ body weight (g) (Day) [2, 6]: −0.4 ± 0.8, g
- Δ Tumor volume, Day 31 ([3]; 7.5 mg/kg, Q4d × 3, i.v.): −46 ± 19 mm^3
- Max. % Regression (Day) ([3]; 7.5 mg/kg, Q4d × 3, i.v., D14): 49% and 49, (D14) %

Structure (SMILES): CC(=O)O[C@H]1C(=O)[C@@]2(C)[C@H]([C@H](OC(=O)c3ccccc3)[C@]3(O)C[C@H](OC(=O)[C@H](O)[C@@H](NC(=O)c4ccccc4)c4ccccc4)C(C)=C1C3(C)C)[C@]1(OC(C)=O)CO[C@@H]1C[C@@H]2O [Paclitaxel, reference compound]
- Survival (alive/total) ([1]; 30 mg/kg, i.p.): 9/9
- Survival (alive/total) ([2]; 1 mg/kg, q4d × 3, i.p.): 9/9
- T/C, Day 31 (%) ([3]; 30 mg/kg, Q4d × 3, i.p.): 30%
- Δ Tumor volume, Day 31 ([3]; 30 mg/kg, Q4d × 3, i.p.): 640 ± 190 mm^3
- Max. % Regression (Day) ([3]; 30 mg/kg, Q4d × 3, i.p., D3): 5 (D3) %

Structure (SMILES): CC(C)(C)[C@H](c1nc(-c2cc(F)ccc2F)cn1Cc1ccccc1)N(CC[C@H](N)CF)C(=O)CO [Compound IIa]
- Survival (alive/total) ([1]; 0.125 mg/kg, i.v.): 9/9
- Survival (alive/total) ([1]; 0.25 mg/kg, i.v.): 9/9
- Survival (alive/total) ([1]; 0.5 mg/kg, i.v.): 9/9
- Survival (alive/total) ([1]; 1 mg/kg, i.v.): 9/9
- Survival (alive/total) ([1]; 1.25 mg/kg, i.v.): 9/9
- Survival (alive/total) ([1]; 2 mg/kg, i.v., (body weight loss)): 8/9 (body
- Survival (alive/total) ([1]; 2.5 mg/kg, i.v.): 9/9
- Survival (alive/total) ([1]; 5 mg/kg, i.v., (body weight loss)): 8/9 (body
- Survival (alive/total) ([2]; 0.625 mg/kg, q4d × 3, i.v.): 4/4
- Survival (alive/total) ([2]; 4 mg/kg, q4d × 3, i.v.): 9/9
- Survival (alive/total) ([2]; Study 2, 0.13 mg/kg, q4d × 3, i.v): 9/9
- Survival (alive/total) ([2]; Study 2, 0.25 mg/kg, q4d × 3, i.v): 9/9
- Survival (alive/total) ([2]; Study 2, 0.5 mg/kg, q4d × 3, i.v): 9/9
- Survival (alive/total) ([2]; Study 2, 1 mg/kg, q4d × 3, i.v): 9/9
- Survival (alive/total) ([2]; Study 2, 2 mg/kg, q4d × 3, i.v): 9/9
- T/C, Day 31 (%) ([3]; 0.25 mg/kg, Q4d × 3, i.v): 25%
- Δ Tumor volume, Day 31 ([3]; 0.25 mg/kg, Q4d × 3, i.v): 527 ± 152 mm^3
- Max. % Regression (Day) ([3]; 0.25 mg/kg, Q4d × 3, i.v, D7): 24 (D7) %
- T/C, Day 31 (%) ([3]; 0.5 mg/kg, Q4d × 3, i.v): 10%
- Δ Tumor volume, Day 31 ([3]; 0.5 mg/kg, Q4d × 3, i.v): 221 ± 71 mm^3
- Max. % Regression (Day) ([3]; 0.5 mg/kg, Q4d × 3, i.v, D10): 42 (D10) %
- T/C, Day 31 (%) ([3]; 1 mg/kg, Q4d × 3, i.v): 0.1* %
- Δ Tumor volume, Day 31 ([3]; 1 mg/kg, Q4d × 3, i.v): 1.5 ± 26 mm^3
- Max. % Regression (Day) ([3]; 1 mg/kg, Q4d × 3, i.v, D17, listed as COMPOUND IIa): 56 (D17) %
- Max. % Regression (Day) ([3]; 1 mg/kg, Q4d × 3, i.v, D17, listed as compound IIa): 56%

Reference: US8252832B2, “Kinesin inhibitors as cancer therapeutics” (Novartis AG, priority 2007, dated 2012)
